Experimental data reported in patent US9347089B2, “Therapeutic and diagnostic strategies” (Children's Medical Center Corporation, priority 2008, dated 2016).

Tests used:
miR-24 = miR-24 level by qRT-PCR relative to U6; type: cell-based, human
Protocol: (§1) HepG2 cells were grown in DMEM supplemented with 10% FCS. HL60 and K562 cells were grown in RPMI-1640 supplemented with 10% FCS. K562 cells (0.5×10^6 cells/ml) were treated with TPA (16 nM, 2 d) or Hemin (100 μM, 4 d) for differentiation into megakaryocytes or erythrocytes, respectively. To induce macrophage or granulocyte differentiation, HL60 cells (0.5×10^6 cells/ml) were treated with TPA (16 nM, 2 d) or DMSO (1.25%, 5 d), respectively. We isolated human polymorphonuclear neutrophils (PMN) from whole blood after removing mononuclear cells and platelets by Ficoll-Hypaque density gradient centrifugation. Erythrocytes were lysed by treatment with ice-cold isotonic lysis buffer (0.155 M NH4Cl, pH 7.4). The remaining PMN cells were washed with Hanks' balanced salt solution and suspended in RPMI medium containing 10% (v/v) FCS. We isolated human macrophages from peripheral blood as described in Song et al. 2003.
(§2) Total RNA was isolated using Trizol (Invitrogen) and reverse transcribed using random hexamers and superscript II reverse transcriptase (Invitrogen). qRT-PCR was performed in triplicate samples using the SYBR Green master mix (Applied Biosystems) and the BioRad iCycler. Primers are provided in Supplemental Table 1. Results were normalized to GAPDH. miRNA quantitative PCR was done in triplicate using the TaqMan MicroRNA Assay from Applied Biosystems as per the manufacturer's instructions and normalized to U6 SnRNA.
(§3) HepG2 cells (2.5×10^5/well) were reverse transfected with 30 nM miRNA […] (cel-miR-67) mimics (Dharmacon) using NeoFx (Ambion) following the manufacturer's instructions. K562 cells were transfected with miRNA or control mimics (100 nM) using Amaxa nucleofection following the manufacturer's protocol. K562 cells were treated with TPA (16 nM, 2 d) and were transfected with 100 nM miR-24 ASO using lipofectamine 2000 (Invitrogen) and 36 h later these cells were exposed to indicated concentrations of bleomycin and cell viability was assessed 2 d later.

H2AX mRNA = H2AX mRNA level by qRT-PCR; type: cell-based, human
Protocol: as §1, §2, §3

K562 cells [1] = experiment: Cell viability assay after genotoxic drug, K562; type: cell-based, human; conditions: for Sensitivity to DNA damage (viability after bleomycin): viability 2 d later
Protocol: as §3
(§4) microRNA-transfected K562 or HepG2 cells were seeded (2×10^3 cells/100 μl) into octuplicate microtiter wells, incubated overnight, and then treated with indicated reagents or medium for 48 h. Viability was measured by CyQuant Cell Proliferation Assay Kit as per manufacturer's instructions (Molecular Probes). Results were expressed as OD520 relative to that of untreated cells.

H2AX = H2AX protein level by immunoblot (densitometry relative to H3); type: cell-based, human
K562 cells [2] = experiment: Cell proliferation by thymidine uptake; type: cell-based, human; conditions: TPA-treated K562 cells, by 12 h
K562 cells [3] = experiment: Chromosome breakage analysis after γ-irradiation; type: cell-based, human; conditions: for Chromosome breaks and fragments versus control cells: 24 hr after 0.75 Gy γ-irradiation
Protocol: K562 and HepG2 cultures were exposed in duplicate wells to indicated doses of γ-irradiation and incubated at 37° C. for indicated times in 5% CO2. Cells were harvested and processed for chromosomal analysis following standard methods (S1). 50-75 Wright-stained metaphases for each condition were scored for chromosomal aberrations.

UBC mRNA = UBC mRNA level by qRT-PCR; type: cell-based; conditions: miR-24 over-expression in HepG2 cells
Protocol: as §2, §3

HepG2 cells [4] = experiment: Cell cycle analysis by propidium iodide flow cytometry; type: cell-based; conditions: HepG2 cells transfected 48 hr
HepG2 cells [5] = experiment: Cell viability assay after genotoxic drug, HepG2; type: cell-based
Protocol: as §3, §4

3′UTR of H2AX mRNA = experiment: Luciferase reporter assay with H2AX 3′UTR / MRE reporters in HepG2 cells; type: cell-based
Protocol: HepG2 cells (2.5×10^5/well) were reverse transfected in triplicate with 30 nM miR-24 mimic, miRNA-328 mimic or control miRNA mimic. Two days later, cells were transfected using Lipofectamine 2000 (Invitrogen) with psiCHECK2 (Promega) vector (0.5 μg/well) containing the 3′UTR of H2AX cloned in the multiple cloning site of Renilla luciferase or control. After 24 hr luciferase activities were measured using the Dual Luciferase Assay System (Promega) and TopCount NXT microplate reader (Perkin Elmer) per manufacturer's instructions. Data were normalized to Firefly luciferase. To test whether H2AX mRNA is directly regulated by miR-24, we cloned the two predicted MREs in the H2AX 3′ UTR into the multiple cloning site of psiCHECK2 and also the mutant versions that disrupted base-pairing between the binding sites and miR-24. HepG2 cells were cotransfected with these plasmids and miR-24 or control mimics for 48 h using Lipofectamine 2000, before we performed the luciferase assays as described above.

K562 cells [6] = experiment: Single cell gel electrophoresis (comet) assay; type: cell-based, human
CHEK1 = CHEK1 protein level by immunoblot; type: cell-based, human; conditions: K562 cells
Protocol: K562 cells (1×10^6) were transfected with miR-24 mimics or control miRNA mimics (cel-miR-67) as above and 48 h later whole cell lysates were prepared using RIPA buffer (150 mM NaCl, 1% NP-40, 0.5% sodium deoxycholate, 0.1% SDS, 50 mM Tris, pH 8.0). Protein samples were quantified using Bradford reagent (BioRad) and resolved on 10% SDS-PAGE gels and analyzed by immunoblot probed with antibodies to H2AX (Upstate Biotech), CHEK1 (cell Signaling), histone H3 (Cell Signaling), tubulin (Sigma). All antibodies were used at a dilution of 1:1000.

C[S+](C)[O-] [DMSO]
miR-24 level during differentiation (miR-24; HL60 cells): increases
Decline of H2AX mRNA, primers specific for the longer transcript (H2AX mRNA; HL60 cell differentiation): two-fold

CCCCCCCCCCCCCC(=O)O[C@@H]1[C@@H](C)[C@@]2(O)[C@@H](C=C(CO)C[C@]3(O)C(=O)C(C)=C[C@@H]23)[C@@H]2C(C)(C)[C@]12OC(C)=O [TPA, 12-O-tetradecanoylphorbol-13-acetate]
Sensitivity to DNA damage (viability after bleomycin) (K562 cells [1]): significantly hypersensitive
miR-24 level during differentiation (miR-24; HL60 cells): increases
miR-24 level during differentiation (miR-24; K562 cells): increases
Decline of H2AX mRNA, primers specific for the longer transcript (H2AX mRNA; HL60 cell differentiation): two-fold
Decline of H2AX mRNA, primers specific for the longer transcript (H2AX mRNA; K562 cell differentiation): two-fold
Drop of H2AX protein level (H2AX; HL60 cells after TPA induction): 4 fold
Drop of H2AX protein level (H2AX; K562 cells after TPA induction): 14 fold
Thymidine incorporation (K562 cells [2]): no thymidine incorporation
Chromosome breaks and fragments versus control cells (K562 cells [3]): significantly more sensitive

hemin
miR-24 level during differentiation (miR-24; K562 cells): increases
Decline of H2AX mRNA, primers specific for the longer transcript (H2AX mRNA; K562 cell differentiation): two-fold

miR-24: microRNA miR-24 (SEQ ID NO: 1), transfected as synthetic mimic (Dharmacon) for over-expression (UGGCUCAGUUCAGCAGGAACAG; synthetic mimic, further chemistry not given here)
Effect on UBC mRNA levels (UBC mRNA): does not alter
Effect on survival with miR-24-insensitive H2AX over-expression (K562 cells [1]): fully rescued
Hypersensitivity to bleomycin with miR-24-insensitive CHEK1 expression (K562 cells [1]; CHEK1 cDNA lacking 3′UTR): not rescued
Sensitivity to DNA damage (viability after bleomycin) (K562 cells [1]): significantly hypersensitive
G1 compartment (HepG2 cells [4]): increases
Effect on survival with miR-24-insensitive H2AX over-expression (HepG2 cells [5]; HepG2 cells): fully rescued
Cytotoxicity of bleomycin (HepG2 cells [5]; mimic-transfected HepG2 cells): significantly enhanced cytotoxicity
Cytotoxicity of cisplatin (HepG2 cells [5]; mimic-transfected HepG2 cells): significantly enhanced cytotoxicity
Decrease of H2AX mRNA (H2AX mRNA; miRNA over-expression in HepG2 cells, 48 hr, normalized to GAPDH): 2 fold
H2AX protein (H2AX; K562 cells transfected with mimic): reduces H2AX comparably to TPA differentiation
Reduction of H2AX protein expression (H2AX; miRNA over-expression in HepG2 cells, 48 hr): −8 fold
Reduction of luciferase activity (3′UTR of H2AX mRNA; H2AX 3′UTR-containing reporter): more than 2 fold
Effect on luciferase activity, mutated MRE reporters (3′UTR of H2AX mRNA; MREs with mutated seed region): little effect
Luciferase activity from control reporters (3′UTR of H2AX mRNA; control reporter (vector)): unchanged
Reduction of luciferase activity, wild-type miR-24 MRE reporters (3′UTR of H2AX mRNA; either wild-type MRE inserted): approximately four-fold
Comet tails compared to control miRNA-transfected cells (K562 cells [6]; K562 cells after bleomycin treatment): 5 fold
Comet moment after bleomycin with H2AX rescue (K562 cells [6]; K562 cells co-transfected with H2AX expression plasmid lacking 3′UTR, versus miRNA control and vector): no significant increase
Basal comet moment (K562 cells [6]; K562 cells, no bleomycin): not significantly changed
Repair of bleomycin-induced DNA damage by comet assay (K562 cells [6]; TPA-treated K562 cells): significantly enhances repair
Chromosomal instability versus control cells (K562 cells [3]; 0.38 Gy): more chromosomal instability
Chromosome breaks versus control cells (K562 cells [3]; 24 hr after 0.38 Gy): not significantly more breaks
Chromosome breaks and fragments versus control cells (K562 cells [3]): twice as many
CHEK1 protein (CHEK1): decrease
